From PubChem BioAssay AID328 (DTP/NCI, 2004) come the findings set out here.

The test system of the assay is BDF1 mice, P388 leukemia ip, median survival T/C. Briefly: NCI In Vivo Anticancer Drug Screen. Data for tumor model P388 Leukemia (intraperitoneal) in B6D2F1 (BDF1) mice. The settings on record: endpoint: median survival time, higher = longer survival. The method, boiled down:
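In tumour-bearing mice, survival after compound treatment is set against the vehicle group and given as a quotient.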

[1] abbreviates: dose: 100.0 mg/kg/injection, schedule: Q01DX009 (ip), vehicle: saline.
Setting [2] is: dose: 200.0 mg/kg/injection, schedule: Q01DX009 (ip), vehicle: saline.
Where [3] appears, read: dose: 400.0 mg/kg/injection, schedule: Q01DX009 (ip), vehicle: saline with Tween-80.
Setting [4] is: dose: 100.0 mg/kg/injection, schedule: Q04DX003 (ip), vehicle: saline.
Where [5] appears, read: dose: 200.0 mg/kg/injection, schedule: Q04DX003 (ip), vehicle: saline.
The mark [6] stands for this setting: dose: 400.0 mg/kg/injection, schedule: Q04DX003 (ip), vehicle: saline.
The mark [7] stands for this setting: dose: 100.0 mg/kg/injection, schedule: Q04DX003 (ip), vehicle: saline with Tween-80.
Setting [8] is: dose: 200.0 mg/kg/injection, schedule: Q04DX003 (ip), vehicle: saline with Tween-80.
Where [9] appears, read: dose: 100.0 mg/kg/injection, schedule: Q04DX003 (ip), vehicle: Klucel (hydroxypropylcellulose) (HPC).
The mark [10] stands for this setting: dose: 200.0 mg/kg/injection, schedule: Q04DX003 (ip), vehicle: Klucel (hydroxypropylcellulose) (HPC).
Where [11] appears, read: dose: 400.0 mg/kg/injection, schedule: Q04DX003 (ip), vehicle: Klucel (hydroxypropylcellulose) (HPC).
Setting [12] is: dose: 50.0 mg/kg/injection, schedule: Q01DX009 (ip), vehicle: saline.

Values joined by “and” are separate entries in the source; they are usually repeats but may differ in a detail not shown here. Identical values can stand only once. Inconclusive results and toxic doses are left out.

For the molecule `CCOC(=O)C(CC(C)C)NC(=O)C(Cc1ccc(N(CCCl)CCCl)cc1)NC(C)=O` (centres undefined), the T/C is 104 % of control (dose: 1.0 mg/kg/injection, schedule: Q01DX009 (ip), vehicle: other); 109 % of control (dose: 2.0 mg/kg/injection, schedule: Q01DX009 (ip), vehicle: other); 163 % of control (dose: 8.0 mg/kg/injection, schedule: Q01DX009 (ip), vehicle: other); 163 % of control (dose: 32.0 mg/kg/injection, schedule: Q01DX009 (ip), vehicle: other); 172 % of control (dose: 64.0 mg/kg/injection, schedule: Q01DX009 (ip), vehicle: other); 195 % of control (dose: 128.0 mg/kg/injection, schedule: Q01DX009 (ip), vehicle: other). In addition, the T/C (dose: 256.0 mg/kg/injection, schedule: Q01DX009 (ip), vehicle: other) is 89 % of control.
For the molecule `CC(=O)N=C1CCCC1C#N` (centres undefined), the T/C is 104 % of control (dose: 100.0 mg/kg/injection, schedule: Q01DX001 (ip), vehicle: Klucel (hydroxypropylcellulose) (HPC)); 100 % of control (dose: 200.0 mg/kg/injection, schedule: Q01DX001 (ip), vehicle: Klucel (hydroxypropylcellulose) (HPC)); 95 % of control (dose: 400.0 mg/kg/injection, schedule: Q01DX001 (ip), vehicle: Klucel (hydroxypropylcellulose) (HPC)).
As for `COC(=O)C1CCCCC1C(=O)OC` (centres undefined), the T/C under setting [1] is 90 % of control; the T/C under setting [2] is 95 % of control; the T/C (dose: 264.0 mg/kg/injection, schedule: Q01DX009 (ip), vehicle: saline with Tween-80) was 109 % of control; the T/C under setting [3] is 109 % of control.
For `CC1C=CC(C(N)C(=O)O)O1` (centres undefined), the T/C was 100 % of control under setting [4]; 100 % of control under setting [5]; 95 % of control and 100 % of control under setting [6].
Consider `COC(=O)c1cc(Cl)cc(C(=O)OC)c1`, for which the T/C is, setting by setting: under setting [7], 100 % of control; under setting [8], 90 % of control; (dose: 400.0 mg/kg/injection, schedule: Q04DX003 (ip), vehicle: saline with Tween-80) 95 % of control.
Regarding `O=C(Nc1ccccc1)c1c(-c2ccccc2)oc2ccccc2c1=O`, the T/C (dose: 50.0 mg/kg/injection, schedule: Q04DX002 (ip), vehicle: saline with Tween-80) is 95 % of control; the T/C (dose: 100.0 mg/kg/injection, schedule: Q04DX002 (ip), vehicle: saline with Tween-80) is 115 % of control; the T/C (dose: 200.0 mg/kg/injection, schedule: Q04DX002 (ip), vehicle: saline with Tween-80) is 100 % of control.
With `Cc1ccc(NS(=O)(=O)c2ccc(F)cc2)cc1Cl`, the T/C under setting [9] is 109 % of control, the T/C under setting [10] is 100 % of control and the T/C under setting [11] was 104 % of control.
As to `CC1(C)C2CC=C(C[P+](c3ccccc3)(c3ccccc3)c3ccccc3)C1C2` (centres undefined), the T/C (dose: 3.3 mg/kg/injection, schedule: Q01DX009 (ip), vehicle: saline sonified) was 120 % of control.
Take `CCOC(=O)c1cc2ccccc2n1-c1ccccc1`: the T/C under setting [3] is 103 % of control.
On the same count and under the same terms, with `CNC(=S)N/N=C/c1ccc([N+](=O)[O-])s1` the figure was 94 % of control.
For the molecule `CCCN(CCC)CCCC#N`, the T/C is 100 % of control (dose: 50.0 mg/kg/injection, schedule: Q04DX003 (ip), vehicle: saline with Tween-80); 100 % of control under setting [7]; 100 % of control under setting [8].
On to `O=S(=O)(N=C1C(Cl)=C(Cl)C(=NS(=O)(=O)c2ccccc2)C(Cl)=C1Cl)c1ccccc1`, for which the T/C reads like this: (dose: 100.0 mg/kg/injection, schedule: Q01DX009 (ip), vehicle: Klucel (hydroxypropylcellulose) (HPC)) 104 % of control; under setting [9], 100 % of control; (dose: 200.0 mg/kg/injection, schedule: Q01DX009 (ip), vehicle: Klucel (hydroxypropylcellulose) (HPC)) 86 % of control; under setting [10], 100 % of control; (dose: 400.0 mg/kg/injection, schedule: Q01DX009 (ip), vehicle: Klucel (hydroxypropylcellulose) (HPC)) 100 % of control; under setting [11], 100 % of control.
On to `NNCCC(=O)O`, for which the T/C is 91 % of control under setting [4]; 112 % of control under setting [5]; 113 % of control (dose: 264.0 mg/kg/injection, schedule: Q04DX003 (ip), vehicle: saline); 118 % of control and 123 % of control under setting [6].
As to `CCCCOC1OCN(CCOC)CC1(C)C` (centres undefined), the T/C was 109 % of control (dose: 50.0 mg/kg/injection, schedule: Q01DX009 (ip), vehicle: saline with Tween-80); 116 % of control under setting [12]; 109 % of control under setting [1]; 153 % of control (dose: 200.0 mg/kg/injection, schedule: Q01DX009 (ip), vehicle: saline with Tween-80); 118 % of control under setting [2].
`O=S(=O)(O)O.[NH-]CC(N)=O.[NH-]CC(N)=O.[Ni+2]`: the T/C by setting is: (dose: 6.25 mg/kg/injection, schedule: Q01DX009 (ip), vehicle: water) 115 % of control; (dose: 12.5 mg/kg/injection, schedule: Q01DX009 (ip), vehicle: water) 110 % of control; (dose: 12.5 mg/kg/injection, schedule: Q04DX003 (ip), vehicle: water) 100 % of control; (dose: 25.0 mg/kg/injection, schedule: Q04DX003 (ip), vehicle: water) 90 % of control; (dose: 50.0 mg/kg/injection, schedule: Q04DX003 (ip), vehicle: water) 109 % of control.
As to `CC1=NNC(=O)/C1=C\c1ccc(N(C)C)cc1`, the T/C runs as follows: (dose: 25.0 mg/kg/injection, schedule: Q01DX009 (ip), vehicle: saline with Tween-80) 95 % of control; (dose: 100.0 mg/kg/injection, schedule: Q01DX009 (ip), vehicle: saline with Tween-80) 93 % of control.
Turning to `C/C=C/C(=O)OCC1CC[N+](C)([O-])C1` (centres undefined), the T/C (dose: 200.0 mg/kg/injection, schedule: Q01DX001 (ip), vehicle: saline) was 91 % of control; the T/C under setting [2] is 117 % of control; the T/C (dose: 400.0 mg/kg/injection, schedule: Q01DX001 (ip), vehicle: saline) was 91 % of control; the T/C (dose: 800.0 mg/kg/injection, schedule: Q01DX001 (ip), vehicle: saline) is 100 % of control; the T/C (dose: 800.0 mg/kg/injection, schedule: Q01DX009 (ip), vehicle: saline) is 99 % of control; the T/C (dose: 1600.0 mg/kg/injection, schedule: Q01DX001 (ip), vehicle: saline) was 95 % of control.
With `CCCCCCCCCCCCO[P+](=O)OCCCCCCCCCCCC`, the T/C was 100 % of control (dose: 200.0 mg/kg/injection, schedule: Q04DX003 (ip), vehicle: saline sonified) and 100 % of control (dose: 400.0 mg/kg/injection, schedule: Q04DX003 (ip), vehicle: saline sonified).
In the case of `CC(C)(N)COS(=O)(=O)O`, the T/C by setting is: under setting [12], 100 % of control; under setting [1], 90 % of control and 100 % of control; under setting [4], 100 % of control; under setting [2], 95 % of control; under setting [5], 100 % of control; (dose: 400.0 mg/kg/injection, schedule: Q01DX009 (ip), vehicle: saline) 100 % of control. Moreover, the T/C under setting [6] was 100 % of control.
